# Data: patent US20030166537A1, “Use of GDNF for treating corneal defects” (Biopharm Gesellschaft Zur Biotechnologischen Entwicklung …, priority 1999, published 2003)
# Assays:
# [1] = system: ERK1, ERK2, JNK1 and JNK2; assay: western blot of phosphorylated MAP kinases in cultured human corneal epithelium; assay type: cell-based; settings: for phosphorylation of ERK1 and ERK2: 200 ng/ml factor vs serum-free control medium; for phosphorylation of ERK1 and ERK2 / phosphorylation of JNK1/2: human epithelial cells; for phosphorylation of JNK1/2: vs control
# Description: (§1) In order to evaluate the effect of GDNF and other neurotrophic factors on the activation of signal transduction pathways in cultured corneal epithelial and stromal keratocytes, western blots were performed for detecting an accumulation of phosphorylated MAP kinases ERK and JNK in the presence of GDNF, NGF and BDNF. Human stromal keratocytes were cultured in RPMI 1640 medium containing L-glutamine (glutaMAX) or DMEM with 10% FBS for one day and starved in serum-free medium for another day. Cultures were then washed with PBS and incubated in serum-free DMEM without additives or with recombinant human GDNF (200 ng/ml), recombinant human NGF (200 ng/ml) and recombinant human BDNF (200 ng/ml) (all obtained from R & D Systems, Mineapolis, Minn., USA) for 30 min. Some cultures were incubated with an inhibitor of MAP kinases (PD 98059, Torcris Cookson Ballwin, Mo., USA) at 100 μM for 1 h prior to exposure to neurotrophines. After washing with PBS, culture cells were solubilized in lysis buffer containing 50 mM Tris-Cl (pH 8.0), 150 mM NaCl, 0.02% sodium azide, 100 μg/ml PMSF, 1% Triton X-100 and a mixture of several protein inhibitors (Complete®, Boehringer Mannheim) (one tablet/50 ml buffer). 50 μg total protein per lane was fractionated by a 10% STS-MOPS NUPAGE Bis-tris gel (NOVEX, San Diego, Calif., USA) and blotted onto nitrocellulose membrane. Membranes were stained with diluted polyclonal antibodies against ERK1, ERK2, JNK1 and JNK2 (Santa Cruz Biotechnology, Santa Cruz, Calif., USA). Also a polyclonal antibody was used which recognizes the […] form of either ERK1 and ERK2 which was raised against the catalytic core of the phosphorylated threonine residue 183 and tyrosine residue 185 of mammalian ERK2. Similarily, a polyclonal antibody recognizing the phosphorylated form of JNK1 and JNK2 was used (both from Promega). In the last step the membranes were visualized with the ECL western blot analysis system (Amersham).
# [2] = system: ERK1, ERK2, JNK1 and JNK2; assay: western blot of phosphorylated MAP kinases in cultured human corneal stromal keratocytes; assay type: cell-based; settings: for phosphorylation of ERK1 and ERK2: 200 ng/ml factor vs control; for phosphorylation of JNK1: vs serum-free medium
# Description: as §1
# [3] = system: primary human corneal epithelial cells; assay: in vitro wound healing assay (scratch wound), primary cells; assay type: cell-based; settings: 18 h, control less than 10%
# Description: (§2) For in vitro wound healing assays primary corneal epithelial cells and cells from the corneal epithelial cell line were seeded at a density of 5×10^5 onto 60 mm plastic dishes with 2 mm grid (Sarstedt, Numbrecht, Germany) and cultured for 2 days until subconfluency. For experiments with artemin primary cultured rabbit corneal epithelial cells were used. These cells had been isolated with Dispase (1,2 U/ml) and trypsin/EDTA. Rabbit cells had been cultured in medium 500 with additives (Cascade Biologies).
# (§3) The cell layer was injured under the microscope by inducing several parallel scratches with a soft plastic cell scrubber (Falcon, Becton and Dickinson, Heidelberg, Germany). The tip of the scrubber was cut and measured about 1 mm and consequently the width of the scratch in the cell layer was also about 1 mm. Selected areas in the dishes were marked with a very fine marker pen and consecutive images were taken at different time points at 5×magnification under an inverted phase contrast microscope (Axiovert 25, Zeiss, Jena, Germany) equipped with a video camera. Following the experimental injury dishes were incubated in SHEM medium either containing no growth factors (control) or containing either GDNF (250 ng/ml) (recombinant human GDNF expressed in E. coli), NGF (250 ng/ml) (Boehringer Mannheim, Germany) or EGF ([…]). For experiments investigating artemin cells were cultured in medium 500 without additives and 250 ng artemin was added. For each condition four representative areas were evaluated within three dishes. The mean diameter of the scratch in each representative area was set as 100% at the beginning of the experiment. 18 hours later the mean diameter of the same scratch was calculated again and expressed in percent of the diameter at the beginning of the experiment.
# [4] = system: corneal epithelial cells from the SV40 transformed cell line; assay: in vitro wound healing assay (scratch wound), cell line; assay type: cell-based, human; settings: 18 h, control 20%±4.5
# Description: as §2, §3
# [5] = biological target: T1, Ret (Homo sapiens, UniProt P07949); assay: immuno-precipitation and western blot of tyrosine-phosphorylated Ret in cultured corneal epithelial cells; assay type: cell-based; settings: cells pretreated with herbimycin A, then GDNF 10 minutes
# T1 construct: The level of phosphorylated Ret (approximately 150 kD) in cultured corneal epithelial cells (control) was low prior to addition of GDNF; endogenous in cells; host or cells: SV40-transformed human corneal epithelial cell line (Araki-Sasaki et al., 1995)
# [6] = system: FAK, Pyk2, cRaf, MEK1, Erk 1 and 2, Elk, RSK; assay: western blot of phosphorylated intracellular signaling proteins in corneal epithelial cells; assay type: cell-based, human; settings: preincubation with herbimycin A for two hours
# Description: In order to investigate which protein kinase cascades are activated by GDNF and artemin, corneal epithelial cells from the cell line were seeded at a density of 5×10^5 cells/75 cm^2 and cultured in SHEM with 10% FBS for one day. Cultures were then washed with PBS and incubated in serum-free SHEM without additives or with GDNF (200 ng/ml) or with artemin (250 ng) for 10 to 40 minutes. After washing with PBS, cultured cells were solubilized in lysis buffer containing 50 mM Tris2Cl (pH8.0), 150 mM NaCl, 0.02% sodium azide, 100 μg/ml phenylmethylsulfonyl fluoride, 1 mM Na3VO4, 1% Triton X-100 and a mixture of several protease inhibitors [complete™, Boehringer Mannheim (1 tablet/30 ml buffer)]. 80 μg total protein per lane was fractionated by NuPAGE 10% SDS-MOPS-Bis-Tris gel or NuPAGE 3-8% Tris-acetate gel (all from NOVEX, San Diego, Calif.) and blotted onto a nitrocellulose membrane. Phosphorylated proteins were detected with phospho-specific antibodies and visualized with the ECL western blot analysis system (Amersham). Antibodies against phospho-Raf(ser259), phospho-MEK1/2(ser217/221), phospho-MAPK (Erk1/2) (thr202/tyr204), phospho-p90 ribosomal S6 kinase (RSK) (ser381) and phospho-Elk-1(ser383) were obtained from New England Biolabs (Beverly, Mass.). Antibody against phospho-FAK (tyr397/tyr407/tyr576/tyr577/tyr861/tyr925) and phospho-Pyk2 (tyr402/tyr579/tyr/580/tyr881) were purchased from Biosource (Camarillo, Calif., USA). A monoclonal antibody against phospho-tyrosine came from Sigma (Deisenhofen, Germany).
# [7] = system: corneal epithelial cells; assay: in vitro wound healing model with herbimycin A; assay type: cell-based; settings: 10 μM Herbimycin A in presence of 250 ng/ml GDNF; 18 hours
# Description: as §2
# The cell layer was injured under the microscope by inducing several parallel scratches with a soft plastic cell scrubber (Falcon, Becton and Dickinson, Heidelberg, Germany). The tip of the scrubber was cut and measured about 1 mm and consequently the width of the scratch in the cell layer was also about 1 mm. Selected areas in the dishes were marked with a very fine marker pen and consecutive images were taken at different time points at 5×magnification under an inverted phase contrast microscope (Axiovert 25, Zeiss, Jena, Germany) equipped with a video camera. […] For each condition four representative areas were evaluated within three dishes. […] 18 hours later the mean diameter of the same scratch was calculated again and expressed in percent of the diameter at the beginning of the experiment. […]
# [8] = system: primary rabbit corneal epithelial cells; assay: single cell clonal growth assay (colony formation, clonal proliferation); assay type: cell-based; settings: 10 ng/ml; day 6; control 40±20
# From the text: In order to evaluate the effect of GDNF on corneal proliferation, recombinant human GDNF was used (R&D, Minneapolis, Minn., USA). For the evaluation of the effect on corneal epithelial proliferaton a single cell clonal growth model was utilized which allows to determine the effect of the given growth factor on both colony formation as well as clonal expansion (Kruse et al., 1991). New Zealand white rabbits were housed and treated according to the ARVO Resolution of Animals in Research and under observation of German Federal Laws and the laws of the State of Baden-Württemberg. Prior to sacrifice with an intravenous overdose of pentobarbital, they received an intramuscular injection of xylazine hydrochloride and ketamine hydrochloride. The details of the clonal growth assay are described in Kruse et al. (1991). 5000 viable cells were seeded in each 16 mm dish in serum-free medium MCDB 151 with a supplement (S) of insulin (5 μg/ml), transferrin (5 μg/ml), selenium (5 ng/ml) and hydrocortisone (5 μg/ml) (all from Sigma, Deisenhofen, Germany). […] This quantification was facilitated by the use of dishes which contained a grit on the bottom which is roughly 2 mm wide (from Sarstedt, Newton, N.C., USA). For data collection the entire surface area of four randomly selected dishes for each condition was screened. Furthermore, the number of cells per colony was determined in 75 randomly selected colonies for each condition. Furthermore, the total number of cells/dish was calculated in order to carry out an evaluation for artemin. In order to stimulate the cellular proliferation, GDNF (50 or 200 ng/ml) or artemin (250 ng/ml) was added to the medium. In order to estimate the rate of proliferation after 12 days (a time when neighbouring colonies started to grow into each other and, therefore, prevented numerical quantification) dishes were fixed in −20° C. methanol and stained with methylene blue.
# All experiments examining the effect of GDNF on corneal proliferation were performed in triplicate with cells from different donors. The influence of growth factor on colony formation, colony size and cell number was studied using one-way analysis of variance. […] Student's t-test was employed to determine which differences were significant after analysis of variance.
# [9] = system: primary rabbit corneal epithelial cells; assay: in vitro wound healing assay (scratch wound), artemin; assay type: cell-based; settings: 10 ng/ml; within 6 h; vs control
# Description: as §2
# The cell layer was injured under the microscope by inducing several parallel scratches with a soft plastic cell scrubber (Falcon, Becton and Dickinson, Heidelberg, Germany). The tip of the scrubber was cut and measured about 1 mm and consequently the width of the scratch in the cell layer was also about 1 mm. Selected areas in the dishes were marked with a very fine marker pen and consecutive images were taken at different time points at 5×magnification under an inverted phase contrast microscope (Axiovert 25, Zeiss, Jena, Germany) equipped with a video camera. […] For each condition four representative areas were evaluated within three dishes. […] 18 hours later the mean diameter of the same scratch was calculated again and expressed in percent of the diameter at the beginning of the experiment.
# T1 sequence (P07949 29-1114): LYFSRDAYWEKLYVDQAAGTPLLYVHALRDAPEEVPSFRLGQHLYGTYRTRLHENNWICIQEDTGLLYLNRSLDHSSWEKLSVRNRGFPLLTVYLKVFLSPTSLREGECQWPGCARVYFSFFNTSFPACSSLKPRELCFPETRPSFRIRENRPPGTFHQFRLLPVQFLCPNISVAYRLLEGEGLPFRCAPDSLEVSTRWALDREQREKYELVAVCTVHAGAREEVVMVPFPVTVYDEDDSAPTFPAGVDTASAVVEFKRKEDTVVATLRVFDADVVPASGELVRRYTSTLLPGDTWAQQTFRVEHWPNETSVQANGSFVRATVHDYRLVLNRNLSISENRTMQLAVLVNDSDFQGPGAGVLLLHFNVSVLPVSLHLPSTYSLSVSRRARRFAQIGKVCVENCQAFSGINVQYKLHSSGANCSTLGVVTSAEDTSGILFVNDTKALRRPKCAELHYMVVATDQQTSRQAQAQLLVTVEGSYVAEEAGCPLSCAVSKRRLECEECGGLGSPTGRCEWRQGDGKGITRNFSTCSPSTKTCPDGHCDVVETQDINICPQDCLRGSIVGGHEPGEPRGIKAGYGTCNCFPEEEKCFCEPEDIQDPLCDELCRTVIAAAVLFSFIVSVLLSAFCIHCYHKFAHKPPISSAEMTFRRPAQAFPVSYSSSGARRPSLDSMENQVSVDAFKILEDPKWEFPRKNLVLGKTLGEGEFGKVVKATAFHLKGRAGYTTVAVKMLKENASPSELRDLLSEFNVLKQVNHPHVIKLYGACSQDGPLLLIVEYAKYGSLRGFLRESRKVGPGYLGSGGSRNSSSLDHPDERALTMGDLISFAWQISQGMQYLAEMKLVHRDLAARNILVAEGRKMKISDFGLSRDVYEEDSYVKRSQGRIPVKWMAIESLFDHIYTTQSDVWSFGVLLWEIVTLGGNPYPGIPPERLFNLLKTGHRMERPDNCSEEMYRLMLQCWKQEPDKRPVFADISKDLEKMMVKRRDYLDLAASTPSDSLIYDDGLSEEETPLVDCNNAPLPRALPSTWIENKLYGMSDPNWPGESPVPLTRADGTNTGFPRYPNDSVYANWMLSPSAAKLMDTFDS
molecule,measurement,setting,value
"NGF: recombinant human NGF, neurotrophic factor used as comparison / positive control",phosphorylation of ERK1 and ERK2,[1],increased
same,phosphorylation of JNK1/2,[1],not induced
same,activated JNK2,[2],not induced
same,phosphorylation of ERK1 and ERK2,[2],induced
same,phosphorylation of JNK1,[2],weakly induced
same,gap in the cell monolayer filled,[3]; 250 ng/ml,19.6%±3.1
same,gap in the cell monolayer filled,[4]; 250 ng/ml,27%±7.1
"CO[C@H]1[C@@H](OC)C[C@H](C)[C@@H](OC)C2=CC(=O)C=C(NC(=O)/C(C)=C/C=C\[C@H](OC)[C@@H](OC(N)=O)/C(C)=C/[C@@H]1C)C2=O [herbimycin A, reference compound]",GDNF-dependent tyrosine phosphorylation of Ret,[5],specifically inhibited
same,GDNF-dependent phosphorylation of Erk,[6],significantly decreased
same,GDNF-dependent phosphorylation of FAK,[6],significantly decreased
same,GDNF-dependent phosphorylation of cRaf,[6],significantly decreased
same,wound gap closed,[7],19.2±5.5%
"COc1cccc(-c2cc(=O)c3ccccc3o2)c1N [PD 98059, reference compound]",effect on BDNF-induced phosphorylation of ERK1 and ERK2,"[1]; PD 98059 100 μM 1 h before BDNF 200 ng/ml, epithelial cells",not inhibited
same,effect on GDNF-induced phosphorylation of ERK1 and ERK2,"[1]; PD 98059 100 μM 1 h before GDNF 200 ng/ml, epithelial cells",prevented
same,effect on NGF-induced phosphorylation of ERK1 and ERK2,"[1]; PD 98059 100 μM 1 h before NGF 200 ng/ml, epithelial cells",prevented
same,effect on phosphorylation of ERK1 in presence of BDNF,[2]; PD 98059 with BDNF 200 ng/ml,remained unchanged
same,effect on GDNF-induced phosphorylation of ERK1,[2]; PD 98059 with GDNF 200 ng/ml,inhibited
same,effect on NGF-induced phosphorylation of ERK1,[2]; PD 98059 with NGF 200 ng/ml,inhibited
EGF: growth factor used as positive control at 10 ng/ml,total number of colonies,[8],58±18
same,gap in the cell monolayer filled,[3]; 10 ng/ml,19.0%±8.6
same,gap in the cell monolayer filled,[4]; 10 ng/ml,44.6±9%
same,in vitro wound healing,[9],significant increase
"BDNF: recombinant human BDNF, neurotrophic factor used for comparison (protein, UniProt P23560 19-247, looked up) Neurotrophic factor BDNF …: APMKEANIRGQGGLAYPGVRTHGTLESVNGPKAGSRGLTSLADTFEHVIEELLDEDQKVRPNEENNKDADLYTSRVMLSSQVPLEPPLLFLLEEYKNYLDAANMSMRVRRHSDPARRGELSVCDSISEWVTAADKKTAVDMSGGTVTVLEKVPVSKGQLKQYFYETKCNPMGYTKEGCRGIDKRHWNSQCRTTQSYVRALTMDSKKRIGWRFIRIDTSCVCTLTIKRGR",phosphorylation of ERK1 and ERK2,[1],increased
same,phosphorylation of JNK1/2,[1],not induced
same,activated JNK2,[2],not induced
same,phosphorylation of ERK1 and ERK2,[2],did not induce
same,phosphorylation of JNK1,[2],weakly induced
